According to PubChem BioAssay AID248 (DTP/NCI, 2004):
Values joined by “and” are separate entries in the source; they are usually repeats but may differ in a detail not shown here. Equal values may be shown once. Toxic doses and inconclusive results are not listed. Rule as the data show it: active = T/C of 150% or more; inactive = T/C below 125%.

Test system: L1210 leukemia ip in BDF1 mice, survival T/C
Test: NCI In Vivo Anticancer Drug Screen. Data for tumor model L1210 Leukemia (intraperitoneal) in B6D2F1 (BDF1) mice
Conditions: endpoint: mean survival time, higher = longer survival
How it was run: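 Tumor cells were implanted, animals were treated, and survival was followed. The result divides the treated measurement by the vehicle-control measurement.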

[1] = dose: 100.0 mg/kg/injection, schedule: Q01DX009 (ip), vehicle: saline
[2] = dose: 100.0 mg/kg/injection, schedule: Q04DX002 (ip), vehicle: saline
[3] = dose: 200.0 mg/kg/injection, schedule: Q01DX009 (ip), vehicle: saline
[4] = dose: 200.0 mg/kg/injection, schedule: Q04DX002 (ip), vehicle: saline
[5] = dose: 400.0 mg/kg/injection, schedule: Q01DX009 (ip), vehicle: saline
[6] = dose: 100.0 mg/kg/injection, schedule: Q04DX003 (ip), vehicle: saline
[7] = dose: 200.0 mg/kg/injection, schedule: Q04DX003 (ip), vehicle: saline
[8] = dose: 400.0 mg/kg/injection, schedule: Q04DX003 (ip), vehicle: saline
[9] = dose: 100.0 mg/kg/injection, schedule: Q01DX009 (ip), vehicle: Klucel (hydroxypropylcellulose) (HPC)
[10] = dose: 100.0 mg/kg/injection, schedule: Q04DX003 (ip), vehicle: Klucel (hydroxypropylcellulose) (HPC)
[11] = dose: 200.0 mg/kg/injection, schedule: Q04DX003 (ip), vehicle: Klucel (hydroxypropylcellulose) (HPC)
[12] = dose: 400.0 mg/kg/injection, schedule: Q04DX003 (ip), vehicle: Klucel (hydroxypropylcellulose) (HPC)
[13] = dose: 200.0 mg/kg/injection, schedule: Q01DX009 (ip), vehicle: Klucel (hydroxypropylcellulose) (HPC)

Measured: T/C

O=C(O)CNC1CCCCC1
inactive: [1] 96 % of control | [2] 97 % of control | [3] 89 % of control | [4] 102 % of control | [5] 96 % of control | dose: 400.0 mg/kg/injection, schedule: Q04DX002 (ip), vehicle: saline 97 % of control

O=C(O)CCc1c2ccc(=O)c(O)c-2oc2c(O)c(O)ccc12
inactive: [6] 106 % of control | [7] 105 % of control | [8] 100 % of control

Cc1ccc(NC(=O)C(F)(F)C(F)(F)C(F)(F)F)cc1
inactive: dose: 100.0 mg/kg/injection, schedule: Q01DX001 (ip), vehicle: saline 89 % of control | dose: 200.0 mg/kg/injection, schedule: Q01DX001 (ip), vehicle: saline 97 % of control | dose: 400.0 mg/kg/injection, schedule: Q01DX001 (ip), vehicle: saline 105 % of control

CCC(Br)C(=O)Nc1c(C)cccc1Cl (stereo not given)
inactive: dose: 25.0 mg/kg/injection, schedule: Q01DX009 (ip), vehicle: Klucel (hydroxypropylcellulose) (HPC) 97 % of control | dose: 50.0 mg/kg/injection, schedule: Q01DX009 (ip), vehicle: Klucel (hydroxypropylcellulose) (HPC) 98 % of control | [9] 94 % of control and 101 % of control | [10] 97 % of control | [11] 95 % of control | [12] 97 % of control

O=C(O)c1cccc(C2CC2)c1
inactive: dose: 100.0 mg/kg/injection, schedule: Q01DX001 (ip), vehicle: other 95 % of control | dose: 100.0 mg/kg/injection, schedule: Q04DX003 (ip), vehicle: other 97 % of control | dose: 200.0 mg/kg/injection, schedule: Q01DX001 (ip), vehicle: other 97 % of control | dose: 200.0 mg/kg/injection, schedule: Q04DX003 (ip), vehicle: other 97 % of control | dose: 400.0 mg/kg/injection, schedule: Q01DX001 (ip), vehicle: other 98 % of control | dose: 400.0 mg/kg/injection, schedule: Q04DX003 (ip), vehicle: other 97 % of control

Clc1cc(Cl)c(I)c(Cl)c1
inactive: [9] 95 % of control | [10] 93 % of control | [13] 95 % of control | [11] 95 % of control | [12] 92 % of control

O=C(O)c1cc2ccccc2cn1
inactive: [2] 102 % of control | [4] 93 % of control

N#Cc1ccccc1OCCCCCCCCCCOc1ccccc1C#N
inactive: dose: 75.0 mg/kg/injection, schedule: Q01DX009 (ip), vehicle: Klucel (hydroxypropylcellulose) (HPC) 99 % of control | dose: 150.0 mg/kg/injection, schedule: Q01DX009 (ip), vehicle: Klucel (hydroxypropylcellulose) (HPC) 92 % of control | dose: 300.0 mg/kg/injection, schedule: Q01DX009 (ip), vehicle: Klucel (hydroxypropylcellulose) (HPC) 90 % of control

CC1(C)COC(=S)N1
inactive: dose: 3.13 mg/kg/injection, schedule: Q01DX009 (ip), vehicle: Klucel (hydroxypropylcellulose) (HPC) 100 % of control | dose: 5.0 mg/kg/injection, schedule: Q01DX009 (ip), vehicle: saline 100 % of control | dose: 5.0 mg/kg/injection, schedule: Q04DX003 (ip), vehicle: saline 98 % of control | dose: 6.25 mg/kg/injection, schedule: Q01DX009 (ip), vehicle: Klucel (hydroxypropylcellulose) (HPC) 103 % of control | dose: 10.0 mg/kg/injection, schedule: Q01DX009 (ip), vehicle: Klucel (hydroxypropylcellulose) (HPC) 97 % of control | dose: 10.0 mg/kg/injection, schedule: Q01DX009 (ip), vehicle: saline 100 % of control | dose: 10.0 mg/kg/injection, schedule: Q04DX003 (ip), vehicle: saline 102 % of control | dose: 12.5 mg/kg/injection, schedule: Q01DX009 (ip), vehicle: Klucel (hydroxypropylcellulose) (HPC) 97 % of control and 87 % of control | dose: 20.0 mg/kg/injection, schedule: Q04DX003 (ip), vehicle: Klucel (hydroxypropylcellulose) (HPC) 100 % of control | dose: 20.0 mg/kg/injection, schedule: Q04DX003 (ip), vehicle: saline 101 % of control

Cc1ccc(Cl)cc1NC(=O)c1ccccc1Cl
inactive: [9] 100 % of control | [1] 100 % of control | [6] 95 % of control | [13] 94 % of control | [3] 105 % of control | [7] 122 % of control | dose: 400.0 mg/kg/injection, schedule: Q01DX009 (ip), vehicle: Klucel (hydroxypropylcellulose) (HPC) 87 % of control | [5] 100 % of control | [8] 111 % of control

C/C(=N\NC(=S)Nc1cc(Cl)ccc1Cl)c1ccc(O)c(C)c1
inactive: dose: 12.5 mg/kg/injection, schedule: Q04DX002 (ip), vehicle: Klucel (hydroxypropylcellulose) (HPC) 102 % of control | dose: 25.0 mg/kg/injection, schedule: Q04DX002 (ip), vehicle: Klucel (hydroxypropylcellulose) (HPC) 102 % of control | dose: 50.0 mg/kg/injection, schedule: Q04DX002 (ip), vehicle: Klucel (hydroxypropylcellulose) (HPC) 105 % of control

Cc1c(O)ccc(C(=O)CCl)c1O
inactive: dose: 12.0 mg/kg/injection, schedule: Q01DX009 (ip), vehicle: saline with Tween-80 100 % of control | dose: 25.0 mg/kg/injection, schedule: Q01DX009 (ip), vehicle: saline with Tween-80 102 % of control and 107 % of control | [10] 106 % of control | [11] 102 % of control

O=C(c1ccccc1)c1nc2ccccc2s1
inactive: dose: 12.5 mg/kg/injection, schedule: Q01DX005 (ip), vehicle: other 94 % of control | dose: 25.0 mg/kg/injection, schedule: Q01DX005 (ip), vehicle: other 90 % of control | dose: 50.0 mg/kg/injection, schedule: Q01DX005 (ip), vehicle: other 89 % of control | dose: 100.0 mg/kg/injection, schedule: Q01DX005 (ip), vehicle: other 89 % of control | dose: 200.0 mg/kg/injection, schedule: Q01DX005 (ip), vehicle: other 89 % of control
